Assay results reported in ChEMBL document CHEMBL4680292, “Neothalfine, a potent natural anti-tumor agent against metastatic colorectal cancer and its primary mechanism” (Bioorg Med Chem, 2021).
One block for each compound: values may come before it. Activity calls are given as the source filed them. No cut-off for these calls is given here.

Legend:
T84 [1] = assay: Anticancer activity against human T84 cells assessed as inhibition of cell proliferation measured after 72 hrs by MTT assay; assay type: functional, cell-based; conditions: T84, 72 h
T98G [2] = assay: Cytotoxicity against human T98G cells assessed as reduction in cell growth at 15 uM measured after 48 hrs; assay type: functional, cell-based
T84 [3] = assay: Cytotoxicity against human T84 cells reduction in cell growth at 15 uM measured after 48 hrs; assay type: functional, cell-based
SW-620 [4] = assay: Induction apoptosis in human SW-620 cells assessed as increase in necrotic cells apoptotic cells at 15 nM measured after 72 hrs by Annexin VFITC /PI staining with flow cytometry (reference value: 0.24%); assay type: functional
SW-620 [5] = assay: Induction apoptosis in human SW-620 cells assessed as increase in live cells at 15 nM measured after 72 hrs by Annexin VFITC /PI staining with flow cytometry (reference value: 92.6%); assay type: functional
SW-620 [6] = assay: Induction of cell cycle arrest in human SW-620 cells assessed as increase in number of cells at G0/G1 phase at 7 nM measured after 72 hrs by PI staining using flow cytometry (reference value: 60.05%); assay type: functional
SW-620 [7] = assay: Anticancer activity against human SW-620 cells assessed as inhibition of cell proliferation measured after 72 hrs by MTT assay; assay type: functional, cell-based; conditions: SW-620, 72 h
SW-620 [8] = assay: Induction of mitochondrial membrane potential loss in human SW-620 cells at 3.5 nM by JC-1 staining based fluorescence microscopic analysis; assay type: functional, cell-based
SW-620 [9] = assay: Induction apoptosis in human SW-620 cells assessed as increase in early apoptotic cells at 15 nM measured after 72 hrs by Annexin VFITC /PI staining with flow cytometry (reference value: 4.08%); assay type: functional
SMMC-7721 [10] = assay: Cytotoxicity against human SMMC-7721 cells assessed as reduction in cell growth at 15 uM measured after 48 hrs; assay type: functional, cell-based
SK-OV-3 [11] = assay: Cytotoxicity against human SK-OV-3 cells assessed as reduction in cell growth at 15 uM measured after 48 hrs; assay type: functional, cell-based
T98G [12] = assay: Anticancer activity against human T98G cells assessed as inhibition of cell proliferation measured after 72 hrs by MTT assay; assay type: functional, cell-based
SW-620 [13] = assay: Induction of apoptosis in human SW-620 cells assessed as increase in cleaved caspase 3/7 level at 15 nM relative to control; assay type: functional
SW-620 [14] = assay: Inhibition of colony formation in human SW-620 cells assessed as damaged tumor spheres at 3.5 to 30 nM by crystal violet staining based microscopic analysis; assay type: functional, cell-based; conditions: dose 3.5-30 nM
MDA-MB-231 [15] = assay: Cytotoxicity against human MDA-MB-231 cells assessed as reduction in cell growth at 15 uM measured after 48 hrs; assay type: functional, cell-based
SW-620 [16] = assay: Induction of apoptosis in human SW-620 cells assessed as increase in cleaved caspase 3/7 level at 11.5 nM relative to control; assay type: functional
SMMC-7721 [17] = assay: Anticancer activity against human SMMC-7721 cells assessed as inhibition of cell proliferation measured after 72 hrs by MTT assay; assay type: functional, cell-based; conditions: SMMC-7721, 72 h
SW-620 [18] = assay: Induction of apoptosis in human SW-620 cells assessed as increase in cleaved caspase 3/7 level at 7 nM relative to control; assay type: functional
SW-620 [19] = assay: Induction of apoptosis in human SW-620 cells assessed as increase in cleaved caspase 3/7 level at 3.5 nM relative to control; assay type: functional
SW-620 [20] = assay: Induction apoptosis in human SW-620 cells assessed as increase in late apoptotic cells at 7 nM measured after 72 hrs by Annexin VFITC /PI staining with flow cytometry (reference value: 3.18%); assay type: functional
SW-620 [21] = assay: Induction apoptosis in human SW-620 cells assessed as increase in live cells at 7 nM measured after 72 hrs by Annexin VFITC /PI staining with flow cytometry (reference value: 92.6%); assay type: functional
SW-620 [22] = assay: Induction apoptosis in human SW-620 cells assessed as increase in early apoptotic cells at 7 nM measured after 72 hrs by Annexin VFITC /PI staining with flow cytometry (reference value: 4.08%); assay type: functional
SK-OV-3 [23] = assay: Anticancer activity against human SK-OV-3 cells assessed as inhibition of cell proliferation measured after 72 hrs by MTT assay; assay type: functional, cell-based; conditions: SK-OV-3, 72 h
NCI-H1299 [24] = assay: Cytotoxicity against human NCI-H1299 cells assessed as reduction in cell growth at 15 uM measured after 48 hrs; assay type: functional, cell-based
HCT-116 [25] = assay: Cytotoxicity against human HCT-116 cells assessed as reduction in cell growth at 15 uM measured after 48 hrs; assay type: functional, cell-based
MHCC97H [26] = assay: Anticancer activity against human MHCC97H cells assessed as inhibition of cell proliferation measured after 72 hrs by MTT assay; assay type: functional, cell-based
MHCC97H [27] = assay: Cytotoxicity against human MHCC97H cells assessed as reduction in cell growth at 15 uM measured after 48 hrs; assay type: functional, cell-based
HCT-116 [28] = assay: Anticancer activity against human HCT-116 cells assessed as inhibition of cell proliferation measured after 72 hrs by MTT assay; assay type: functional, cell-based; conditions: HCT-116, 72 h
SW-620 [29] = assay: Cytotoxicity against human SW-620 cells assessed as reduction in cell growth at 15 uM measured after 48 hrs; assay type: functional, cell-based
NCI-H1299 [30] = assay: Anticancer activity against human NCI-H1299 cells assessed as inhibition of cell proliferation measured after 72 hrs by MTT assay; assay type: functional, cell-based; conditions: NCI-H1299, 72 h
PC-3 [31] = assay: Cytotoxicity against human PC-3 cells assessed as reduction in cell growth at 15 uM measured after 48 hrs; assay type: functional, cell-based
MDA-MB-231 [32] = assay: Anticancer activity against human MDA-MB-231 cells assessed as inhibition of cell proliferation measured after 72 hrs by MTT assay; assay type: functional, cell-based; conditions: MDA-MB-231, 72 h
PC-3 [33] = assay: Anticancer activity against human PC-3 cells assessed as inhibition of cell proliferation measured after 72 hrs by MTT assay; assay type: functional, cell-based; conditions: PC-3, 72 h
SW-620 [34] = assay: Induction apoptosis in human SW-620 cells assessed as increase in late apoptotic cells at 15 nM measured after 72 hrs by Annexin VFITC /PI staining with flow cytometry (reference value: 3.18%); assay type: functional
SW-620 [35] = assay: Induction of cell cycle arrest in human SW-620 cells assessed as increase in number of cells at G2/M phase at 7 nM measured after 72 hrs by PI staining using flow cytometry (reference value: 27.08%); assay type: functional
SW-620 [36] = assay: Induction apoptosis in human SW-620 cells assessed as increase in necrotic cells apoptotic cells at 7 nM measured after 72 hrs by Annexin VFITC /PI staining with flow cytometry (reference value: 0.24%); assay type: functional
SW-620 [37] = assay: Induction apoptosis in human SW-620 cells assessed as increase in late apoptotic cells at 6 uM measured after 72 hrs by Annexin VFITC /PI staining with flow cytometry (reference value: 3.18%); assay type: functional
SW-620 [38] = assay: Inhibition of colony formation in human SW-620 cells assessed as effect on tumor sphere formation at 30 nM by crystal violet staining based microscopic analysis; assay type: functional, cell-based
SW-620 [39] = assay: Induction of cell cycle arrest in human SW-620 cells assessed as increase in number of cells at G0/G1 phase at 6 uM measured after 72 hrs by PI staining using flow cytometry (reference value: 60.05%); assay type: functional
SW-620 [40] = assay: Induction apoptosis in human SW-620 cells assessed as increase in early apoptotic cells at 12 uM measured after 72 hrs by Annexin VFITC /PI staining with flow cytometry (reference value: 4.08%); assay type: functional
SW-620 [41] = assay: Induction apoptosis in human SW-620 cells assessed as increase in early apoptotic cells at 6 uM measured after 72 hrs by Annexin VFITC /PI staining with flow cytometry (reference value: 4.08%); assay type: functional
SW-620 [42] = assay: Induction apoptosis in human SW-620 cells assessed as increase in necrotic cells apoptotic cells at 6 uM measured after 72 hrs by Annexin VFITC /PI staining with flow cytometry (reference value: 0.24%); assay type: functional
SW-620 [43] = assay: Induction apoptosis in human SW-620 cells assessed as increase in live cells at 12 uM measured after 72 hrs by Annexin VFITC /PI staining with flow cytometry (reference value: 92.6%); assay type: functional
SW-620 [44] = assay: Induction apoptosis in human SW-620 cells assessed as increase in late apoptotic cells at 12 uM measured after 72 hrs by Annexin VFITC /PI staining with flow cytometry (reference value: 3.18%); assay type: functional
SW-620 [45] = assay: Induction of cell cycle arrest in human SW-620 cells assessed as increase in number of cells at G2/M phase at 6 uM measured after 72 hrs by PI staining using flow cytometry (reference value: 27.08%); assay type: functional
SW-620 [46] = assay: Inhibition of colony formation in human SW-620 cells assessed as damaged tumor sphere at 3 to 6 uM by crystal violet staining based microscopic analysis; assay type: functional, cell-based; conditions: dose 3-6 µM
SW-620 [47] = assay: Induction apoptosis in human SW-620 cells assessed as increase in live cells at 6 uM measured after 72 hrs by Annexin VFITC /PI staining with flow cytometry (reference value: 92.6%); assay type: functional
SW-620 [48] = assay: Induction apoptosis in human SW-620 cells assessed as increase in necrotic cells apoptotic cells at 12 uM measured after 72 hrs by Annexin VFITC /PI staining with flow cytometry (reference value: 0.24%); assay type: functional

IC50 (SW-620 [7]): 5.9 nM
IC50 (SMMC-7721 [17]): 73 nM
IC50 (SK-OV-3 [23]): 180 nM
IC50 (HCT-116 [28]): 7.2 nM
IC50 (NCI-H1299 [30]): 132 nM
IC50 (MDA-MB-231 [32]): 467 nM
IC50 (PC-3 [33]): 661 nM
Compound: COc1ccc2cc1Oc1ccc(cc1)Cc1nccc3c4c(c(OC)c(c13)Oc1c3c(cc(OC)c1OC)[C@H](C2)N(C)CC3)OCO4
IC50 (T84 [1]): 8.2 nM
Activity (T98G [2]): Active
Activity (T84 [3]): Active
Activity (SW-620 [4]): 0.15%
Activity (SW-620 [5]): 69.82%
Activity (SW-620 [6]): 46.37%
Activity (SW-620 [8]): Active
Activity (SW-620 [9]): 26.2%
Activity (SMMC-7721 [10]): Active
Activity (SK-OV-3 [11]): Active
IC50 (T98G [12]): 382 nM
fold change (FC) (SW-620 [13]): 12.9
inhibition (SW-620 [14]): Active
Activity (MDA-MB-231 [15]): Active
fold change (FC) (SW-620 [16]): 9.3
fold change (FC) (SW-620 [18]): 8.2
fold change (FC) (SW-620 [19]): 3.3
Activity (SW-620 [20]): 7.36%
Activity (SW-620 [21]): 82.74%
Activity (SW-620 [22]): 8.7%
Activity (NCI-H1299 [24]): Active
Activity (HCT-116 [25]): Active
IC50 (MHCC97H [26]): 145 nM
Activity (MHCC97H [27]): Active
Activity (SW-620 [29]): Active
Activity (PC-3 [31]): Active
Activity (SW-620 [34]): 4.83%
Activity (SW-620 [35]): 41%
Activity (SW-620 [36]): 1.2%

IC50 (SW-620 [7]): 4.7 nM
IC50 (HCT-116 [28]): 4 nM
Compound: CC(=O)O[C@@]12CO[C@@H]1C[C@H](O)[C@@]1(C)C(=O)[C@H](O)C3=C(C)[C@@H](OC(=O)[C@H](O)[C@@H](NC(=O)OC(C)(C)C)c4ccccc4)C[C@@](O)([C@@H](OC(=O)c4ccccc4)[C@H]21)C3(C)C [DOCETAXEL ANHYDROUS]
IC50 (T84 [1]): 2.7 nM

IC50 (SW-620 [7]): 5.1 nM
IC50 (HCT-116 [28]): 4.4 nM
Compound: CCc1c2c(nc3ccc(OC(=O)N4CCC(N5CCCCC5)CC4)cc13)-c1cc3c(c(=O)n1C2)COC(=O)[C@]3(O)CC [IRINOTECAN]
IC50 (T84 [1]): 6.9 nM
Activity (SW-620 [37]): 4.12%
inhibition (SW-620 [38]): inactive
Activity (SW-620 [39]): 33.53%
Activity (SW-620 [40]): 13.18%
Activity (SW-620 [41]): 7.84%
Activity (SW-620 [42]): 0.34%
Activity (SW-620 [43]): 81.18%
Activity (SW-620 [44]): 5.3%
Activity (SW-620 [45]): 55.12%
inhibition (SW-620 [46]): Active
Activity (SW-620 [47]): 87.7%
Activity (SW-620 [48]): 0.34%
